Measurements taken from patent US11673866B2, “Estrogen receptor beta ligands for the prevention and treatment of multiple sclerosis (MS) and other demyelinating, inflammatory and neurodegenerative diseases” (The Board of Trustees of the University of Illinois, priority 2018, dated 2023).
“Also recorded” adds a separate entry of the source.

Assays:
Format in all cases: in vivo, mouse
EAE mice = test: EAE clinical disease score; design: key to Disability: Disease score: ‘+’ indicate marker was significantly (p ≤ 0.05) increased in treatment group relative to vehicle; ‘−’ indicates marker was significantly (p ≤ 0.05) decreased in treatment group relative to vehicle; ○: ‘o’ indicate marker did not change relative to vehicle; conditions: for Disability: Disease score / EAE clinical scores / disease progression: vs vehicle; for EAE clinical symptoms during peak disease: therapeutic 5 mg/kg/d from day 8 (postEAE); for EAE clinical scores / disease progression: therapeutic s.c. from day 8 (postEAE)
[1] = system: MOG35-55-stimulated splenocytes; test: Cytokine and chemokine production by splenocytes from EAE mice (Luminex); design: key to Peripheral Inflammatory Cytokines: IFNγ / Peripheral Inflammatory Cytokines: IL-lβ / Peripheral Inflammatory Cytokines: IL-2 / Peripheral Inflammatory Cytokines: IL-6 / Peripheral Inflammatory Cytokines: IL-17 / Peripheral Inflammatory Cytokines: TNFα / Peripheral Th2 & Anti-inflammatory Cytokines: IL-4 / Peripheral Th2 & Anti-inflammatory Cytokines: IL-5 / Peripheral Th2 & Anti-inflammatory Cytokines: IL-10 / Peripheral Th2 & Anti-inflammatory Cytokines: IL-13 / Peripheral Chemokines: CXCL1 / Peripheral Chemokines: CXCL10: ‘+’ indicate marker was significantly (p ≤ 0.05) increased in treatment group relative to vehicle; ‘−’ indicates marker was significantly (p ≤ 0.05) decreased in treatment group relative to vehicle; ○: ‘o’ indicate marker did not change relative to vehicle; conditions: for Peripheral Chemokines: CXCL1 / Peripheral Chemokines: CXCL10 / Peripheral Inflammatory Cytokines: IFNγ / Peripheral Inflammatory Cytokines: IL-2 / Peripheral Inflammatory Cytokines: IL-6 / Peripheral Inflammatory Cytokines: IL-17 / Peripheral Inflammatory Cytokines: IL-lβ / Peripheral Inflammatory Cytokines: TNFα / Peripheral Th2 & Anti-inflammatory Cytokines: IL-4 / Peripheral Th2 & Anti-inflammatory Cytokines: IL-5 / Peripheral Th2 & Anti-inflammatory Cytokines: IL-10 / Peripheral Th2 & Anti-inflammatory Cytokines: IL-13: vs vehicle
Procedure: Splenocyte Isolation & Cytokine Analysis: On day 20-21 after induction of EAE, spleens were harvested prior to transcardial perfusion. Spleens were dissected from anesthetized mice and mechanically dissociated into a single cell suspension in cold RPMI 1640 supplemented with pyruvate, L-glutamine, and 10% fetal bovine serum (henceforth referred to as RPMI). Red blood cells were lysed by incubation with ACK buffer (VWR), washed, counted, and resuspended in RPMI for cytokine analysis. Splenocytes were then stimulated with 25 μg/ml MOG35-55 and supernatants were collected 48 hours later (Khalaj et al., 2013; Moore et al., 2013). Levels of the anti-inflammatory cytokines: IL-10, IL-13, IL-4 and IL-5; pro-inflammatory cytokines IFNγ, IL-17, IL-1β TNFα, IL-6 and IL-2; and chemokines: CXCL1, CXCL10 were determined by Cytokine Mouse Magnetic Panel for Luminex (Thermo Fisher Scientific; Waltham, Mass.) and run on the xMAP MAGPIX 100™ instrument (Luminex Corporation, Austin, Tx) according to manufacturer's instructions.
During MS and EAE, peripherally activated leukocytes secrete inflammatory cytokines and chemokines as they migrate into the CNS, where they contribute to demyelination and axon damage (Fletcher et al., 2010). To characterize the effects of IndCl analogues on the peripheral immune response, splenocytes were isolated from mice 21 days post-immunization and stimulated ex vivo with MOG35-55 peptide for cytokine and chemokine analysis using a magnetic bead-based 20-plex cytokine/chemokine detection assay. Cytokines related to inflammation, CD4+ T cell polarization, immune regulation, and chemokines associated with OL apoptosis and myelination that were measured in collected supernatants are presented below.

callosal axons = test: Callosal compound action potential (CAP) recordings in brain slices of EAE mice; conditions: vs vehicle; for N1 CAP amplitude / N2 CAP amplitude: therapeutic treatment (postEAE)
Procedure: Electrophysiology: To assess functional conductivity across the CC, electrophysiological recordings of compound action potentials (CAPs) were measured as previously described (Crawford et al., 2009; Crawford et al., 2010). Coronal brain slices were prepared from adult (3 to 4 month old) C57BL/6 female mice. Briefly, mice were deeply anesthetized under isoflurane and decapitated. The brain was removed and submerged in partially frozen “slushy” solution of slicing buffer containing (in mM): 87 NaCl, 75 sucrose 2.5 KCl, 0.5 CaCl2), 7 MgCl2, 1.25 NaH2PO4, 25 NaHCO3, 10 glucose, 1.3 ascorbic acid, 0.1 kynurenic acid, 2.0 pyruvate, and 3.5 MOPS, bubbled with 5% CO2+95% O2 (Lauderdale et al., 2015). Coronal slices (350 μm) were prepared using a Leica VT 1000S Vibratome (Bannockburn, Ill.) and subsequently incubated for 45 minutes at 35° C. in slicing buffer. Following incubation, slices were allowed to cool to room temperature for 15 minutes then transferred to ACSF […] containing (in mM): 125 NaCl, 2.5 KCl, 2.5 CaCl2), 1.3 MgCl2, 1.25 NaH2PO4, 26.0 NaHCO3, and 15 glucose, oxygenated with 5% CO2+95% O2. Slices were equilibrated in the standard ACSF for a minimum of 15-20 minutes prior to electrophysiological recordings. During electrophysiological recordings, slices were continuously perfused with oxygenated ACSF maintained at a flow rate of 1 mL/min. For recording CAPs, an Axon Digidata 1550 was used with a Multiclamp 700B Amplifier and PClamp 10.4 Software (Molecular Devices, Sunnyvale, Calif.). Continuous recordings for CC conduction experiments were low-pass filtered at 10 kHz and digitized at 200 kHz. All experiments were conducted at room temperature (24-26° C.). To stimulate the CC fiber tract, a concentric bipolar stimulating electrode (FHC Neural microTargeting Worldwide, Bowdoin, Me., USA) was placed approximately 1 mm away across from a recoding electrode (glass micropipette filled with ACSF) with a resistance of 1-3 MO. To elicit CAPs, an episodic stimulation protocol was created consisting of 8 consecutive sweeps, each 12 ms long, with a 5-sec delay between sweeps and an immediate stimulus (0.01 ms duration) after the start of each sweep (Crawford et al., 2009a). Stimulus intensity was adjusted manually using an ISO-Flex stimulator (A.M.P.I). Standardized input-output plots were generated in current clamp mode for each slice by averaging at least 4 consecutive sweeps together to […] the signal-to-noise ratio. […] Electrophysiology data were analyzed using Clampfit 10.4 software (Molecular Devices, Sunnyvale, Calif.) and OriginPro 2016 64 Bit (OriginLab Corporation)
Large white matter tracts, such as the CC, are especially vulnerable to demyelination and axonal damage in MS and EAE (Ozturk et al., 2010; Mangiardi et al., 2011). Compound action potential (CAP) recordings are a valuable technique for assessing demyelination and damage in these areas through their impact on functional conductivity (Crawford et al., 2009; Crawford et al., 2010; Moore et al., 2013).

[2] = Post (therapeutic, postEAE) treatment of EAE mice
[3] = Pre (prophylactic, preEAE) E2 treatment of EAE mice
[4] = prophylactic E2 (preEAE), day 21, vs vehicle
[5] = therapeutic treatment (postEAE), day 21, vs vehicle

Row | Compound | Disability: Disease score (EAE mice; [2]) | Peripheral Chemokines: CXCL1 [1, 2] | Peripheral Chemokines: CXCL10 [1, 2] | Peripheral Inflammatory Cytokines: IFNγ [1, 2] | Peripheral Inflammatory Cytokines: IL-2 [1, 2] | Peripheral Inflammatory Cytokines: IL-6 [1, 2] | Peripheral Inflammatory Cytokines: IL-17 [1, 2] | Peripheral Inflammatory Cytokines: IL-lβ [1, 2] | Peripheral Inflammatory Cytokines: TNFα [1, 2] | Peripheral Th2 & Anti-inflammatory Cytokines: IL-4 [1, 2] | Peripheral Th2 & Anti-inflammatory Cytokines: IL-5 [1, 2] | Peripheral Th2 & Anti-inflammatory Cytokines: IL-10 [1, 2] | Peripheral Th2 & Anti-inflammatory Cytokines: IL-13 [1, 2] | EAE clinical symptoms during peak disease (EAE mice) | EAE clinical scores / disease progression (EAE mice) | IFNγ production by splenocytes [1, 5] | Electrophysiology: N1 amplitude (callosal axons; [2]) | N1 CAP amplitude (callosal axons) | IL-6 production by splenocytes [1, 5] | IL-13 production by splenocytes [1, 5] | further results
1 | C[C@]12CC[C@@H]3c4ccc(O)cc4CC[C@H]3[C@@H]1CC[C@@H]2O [E2, 170 estradiol] | ○ | + | − | − | ○ | − | − | ○ | ○ | ○ | ○ | ○ | ○ |  |  |  |  |  |  |  | Disability: Disease score (EAE mice; [3]): −; Peripheral Chemokines: CXCL1 [1, 3]: +; Peripheral Chemokines: CXCL10 [1, 3]: −; Peripheral Inflammatory Cytokines: IFNγ [1, 3]: −; Peripheral Inflammatory Cytokines: IL-2 [1, 3]: −; Peripheral Inflammatory Cytokines: IL-6 [1, 3]: −; Peripheral Inflammatory Cytokines: IL-17 [1, 3]: −; Peripheral Inflammatory Cytokines: IL-lβ [1, 3]: ○; Peripheral Inflammatory Cytokines: TNFα [1, 3]: ○; Peripheral Th2 & Anti-inflammatory Cytokines: IL-4 [1, 3]: ○; Peripheral Th2 & Anti-inflammatory Cytokines: IL-5 [1, 3]: ○; Peripheral Th2 & Anti-inflammatory Cytokines: IL-10 [1, 3]: ○; Peripheral Th2 & Anti-inflammatory Cytokines: IL-13 [1, 3]: ○; IL-1β production by splenocytes [1, 4]: no effect; TNFα production by splenocytes [1, 4]: no effect
2 | Oc1ccc(-n2nc3ccc(O)cc3c2Cl)cc1 [IndCl, chloroindazole] | ○ | + | − | − | ○ | ○ | ○ | + | ○ | ○ | ○ | ○ | ○ | did not significantly affect EAE clinical symptoms | reversed disease progression over time | significantly decreased | + | significant improvement; also recorded: improved |  |  | CXCL1 production by splenocytes [1, 5]: increased; CXCL10 production by splenocytes [1, 5]: decreased; IL-1β production by splenocytes [1, 5]: increased; Th2 (IL-4, IL-5, IL-13) and IL-10 cytokine production by splenocytes [1, 5]: no effect
3 | Oc1ccc(-n2nc3ccc(O)cc3c2Cl)c(Cl)c1 [IndCl-o-Cl, 3-chloro-2-(2-chloro-4-hydroxyphenyl)-2H-indazol-5-ol] | − | + | − | − | ○ | − | − | ○ | ○ | ○ | ○ | ○ | − | did not significantly affect EAE clinical symptoms | reversed disease progression over time; also recorded: significantly reduced | significantly decreased | + | improved | significantly decreased | attenuated | IFNγ production by splenocytes ([1]; therapeutic treatment (postEAE), day 21, vs vehicle, listed as o-Cl): decreased; Electrophysiology: N2 amplitude (callosal axons; [2]): +; N2 CAP amplitude (callosal axons): increased; N2 CAP amplitude (callosal axons; listed as Ind-o-Cl): small but significant increase
4 | Cc1cc(O)ccc1-n1nc2ccc(O)cc2c1Cl [IndCl-o-Me, 3-chloro-2-(4-hydroxy-2-methylphenyl)-2H-indazol-5-ol] | − | + | − | − | ○ | − | − | ○ | ○ | ○ | ○ | ○ | − | did not significantly affect EAE clinical symptoms | reversed disease progression over time; also recorded: significantly reduced | significantly decreasing | + | improved | significantly decreasing | attenuated | IL-17 production by splenocytes [1, 5]: significantly decreasing; also recorded: reducing; IFNγ production by splenocytes ([1]; therapeutic treatment (postEAE), day 21, vs vehicle, listed as o-Me): decreased
